This note sets out measurements from patent US6958351B2, “NMDA NR2B antagonists for treatment” (Pfizer Inc, priority 2000, dated 2005).

Each structure is given as a SMILES string.

In turn, `Oc1ccc2c(c1)OCC(N1CCC(O)(c3ccc(F)cc3)CC1)[C@H]2O` (stereo in doubt) gave a melting point of 159 to 160 °C.

As usually defined, the melting point is the temperature of the solid-liquid transition.
